Consider three compounds from patent US20260174680A1, “MAMMARY GLAND TISSUE HEALTH MAINTENANCE AGENT HAVING GABA AS ACTIVE INGREDIENT” (SANWA SHURUI CO., LTD., priority 2022, published 2026).

Series [1] concerns mammary gland tissue. Kind of series: Animal experiment: E2-induced mammary gland tissue dysplasia and invasion in scid mice. The series is classed as in vivo. The following applies: 25 days. The method, then: Ten-week-old Scid mice were intraperitoneally administered with 6 μg of E2 per day for 25 days, and were simultaneously intraperitoneally administered with 6 μg of Equol per day and/or were intraperitoneally administered with 0.5 mg (low) or 5 mg (high) of GABA per day. The fourth mammary gland was sampled 24 hours after the final administration, and photographs are shown of tissue observation by hematoxylin and eosin (H&E) staining (upper row) and Elastica van Gieson (EVG) staining (lower row).
This mouse model system that develops early stage breast cancer is an experimental system developed by the present inventors, and a system in which scid mice, which are a mouse strain with reduced DNA repair ability, are used to be administered estradiol (E2) intraperitoneally for […] to induce mammary gland tissue dysplasia. […] The present invention also uses this experimental system to evaluate the effects of GABA or the combined use of GABA and equol.
Ten-week-old scid mice were intraperitoneally administered PBS as a negative control group, 6 μg/day of E2 as a positive control group, 6 μg of E2+6 μg/day of equol (Eq) in experimental group 1, 6 μg of E2+0.5 mg/day of GABA in experimental group 2, 6 μg of E2+5 mg/day of GABA in experimental group 3, 6 μg of E 2+6 μg of Eq+0.5 mg of GABA in experimental group 4, and 6 μg of E 2+6 μg of Eq+5 mg of GABA in experimental group 5, with six mice in each group, every morning for 25 days. 24 hours after the final administration, the fourth mammary gland was sampled, and the tissue was observed by hematoxylin and eosin (H&E) staining and Elastica van Gieson (EVG) staining.
In addition, the frequency of occurrence of dysplasia in sections of the mammary gland tissue was evaluated.
Mouse (female): C. B-17/Icr-scid/scid Jel was purchased from CLEA Japan.
The E2 used was E2758 manufactured by SIGMA, the Equol (Eq) used was SML2147 manufactured by SIGMA, and the GABA used was A5835 manufactured by SIGMA.

Series [2] relates to mammary gland tissue. The conditions noted are these: equol intraperitoneally, with estradiol administered (Non-Patent Literature 1); cited from earlier work.
Another series concerns MCF7 (ATCC HTB-22) cells. Kind of series: Cell test: E2-induced DNA double-strand break signals in MCF7 cells (P-Histone H2AX immunostaining). It is filed as cell-based. The following applies: 4 hours.
[3] abbreviates: experimental groups 1 to 5: Eq or GABA added to 6 μg/day E2 i.p.

Experimental for MCF7 (ATCC HTB-22) cells: After MCF 7 (ATCC HTB-22) cells were cultured, and the medium was removed, 200 μL of PBS adjusted to E2-free, 10 nM of E2, or 10 nM of E2+0.3 μg/mL to 1.1 μg/mL of GABA was added to each well, and the cells were incubated at 37° C. and 5% of CO2 for 4 hours. The cells were visualized by adding a primary histone antibody, and the DNA double-strand break signals per cell were measured by observation under a microscope.
The cultured cells used were MCF7 (ATCC HTB-22). MCF7 cells were cultured for 2 days to 3 days in phenol red-free RPMI 1640 medium containing 10% of fetal bovine serum and 1 nM of E2.
The cells were passaged into phenol red-free RPMI medium containing 10% of charcoal-stripped serum (Charcoal-Stripped FBS, Thermo Fisher) and 1 nM of E 2, and seeded into an 8-well plate (SCS-N28 MAS-Coat, Matsunami) at 400 μL/well. After 1 day to 2 days, the medium on the 8-well plate was removed and replaced with serum-free, phenol red-free RPMI medium, and the cells were starved by culturing for 1 day to align the cell cycle to the G1 phase. […]
The cells were observed under a microscope, the DNA double-strand break signals per cell were measured, and statistical analysis was performed using the Mann-Whitney U-test, with p<0.05 being considered to indicate a significant difference. […]
For each experiment section, DNA double-strand break signals were counted in 100 cells.

For the compound `C[C@]12CC[C@@H]3c4ccc(O)cc4CC[C@H]3[C@@H]1CC[C@@H]2O` [E2, estradiol, reference compound], the “invasion in mammary gland tissue sections (H&E and EVG staining)” value (from here on “invasion”) in the series with mammary gland tissue [1] (positive control: E2 only, 6 μg/day i.p.) is recorded as “showed invasion”.

In the case of `Oc1ccc([C@H]2COc3cc(O)ccc3C2)cc1` [Eq, equol, reference compound], the “mammary gland tissue dysplasia” value with mammary gland tissue [2] was “mammary gland tissue dysplasia was inhibited”. In the series on mammary gland tissue [1] (experimental group 1: 6 μg E2 + 6 μg/day equol i.p., negative control 16%), the “frequency of occurrence of dysplasia (average of E2-only positive control taken as 100%)” value is “approximately 58%”. In the series with mammary gland tissue [1] (setting [3]), the “invasion” value is given as “no invasion was observed”.

`NCCCC(=O)O` [GABA, γ-amino butyric acid]: the “DNA damage (DNA double-strand break signals per cell)” value with MCF7 (ATCC HTB-22) cells (10 nM E2 + 1.1 μg/mL GABA, Mann-Whitney U-test, p<0.05) is listed as “significantly reduced DNA damage”. In the series on MCF7 (ATCC HTB-22) cells (10 nM E2 + 0.3 to 1.1 μg/mL GABA), the “number of DNA damages (DNA double-strand break signals per cell)” value is on record as “tended to reduce the number of DNA damages”. Further, the “frequency of occurrence of dysplasia (average of E2-only positive control taken as 100%)” value in the series on mammary gland tissue [1] (experimental group 2: 6 μg E2 + 0.5 mg/day GABA i.p.) is reported as 44%; in the series with mammary gland tissue [1] (experimental group 3: 6 μg E2 + 5 mg/day GABA i.p.) it was 37%. Besides, the “invasion” value in the series on mammary gland tissue [1] (setting [3]) was “no invasion was observed”.
